pIC50: −log10 of the molar value. The source made the active and inactive calls.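 How the source made its calls: active means IC50 at or below 20 µM (some results past the limit were not filed as active); inactive means the rest.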
Molecular target: Fatty acid synthase (Homo sapiens) (UniProt P49327)
Experiment: FAS thioesterase domain inhibitors, dose response, biochemical, fluorescence intensity, OMFH substrate (AID 1347040)
Settings: recombinant FAS-TE, OMFH fluorogenic substrate

Chain of Fatty acid synthase (Homo sapiens) (P49327 whole entry, looked up, the tested form may be a part): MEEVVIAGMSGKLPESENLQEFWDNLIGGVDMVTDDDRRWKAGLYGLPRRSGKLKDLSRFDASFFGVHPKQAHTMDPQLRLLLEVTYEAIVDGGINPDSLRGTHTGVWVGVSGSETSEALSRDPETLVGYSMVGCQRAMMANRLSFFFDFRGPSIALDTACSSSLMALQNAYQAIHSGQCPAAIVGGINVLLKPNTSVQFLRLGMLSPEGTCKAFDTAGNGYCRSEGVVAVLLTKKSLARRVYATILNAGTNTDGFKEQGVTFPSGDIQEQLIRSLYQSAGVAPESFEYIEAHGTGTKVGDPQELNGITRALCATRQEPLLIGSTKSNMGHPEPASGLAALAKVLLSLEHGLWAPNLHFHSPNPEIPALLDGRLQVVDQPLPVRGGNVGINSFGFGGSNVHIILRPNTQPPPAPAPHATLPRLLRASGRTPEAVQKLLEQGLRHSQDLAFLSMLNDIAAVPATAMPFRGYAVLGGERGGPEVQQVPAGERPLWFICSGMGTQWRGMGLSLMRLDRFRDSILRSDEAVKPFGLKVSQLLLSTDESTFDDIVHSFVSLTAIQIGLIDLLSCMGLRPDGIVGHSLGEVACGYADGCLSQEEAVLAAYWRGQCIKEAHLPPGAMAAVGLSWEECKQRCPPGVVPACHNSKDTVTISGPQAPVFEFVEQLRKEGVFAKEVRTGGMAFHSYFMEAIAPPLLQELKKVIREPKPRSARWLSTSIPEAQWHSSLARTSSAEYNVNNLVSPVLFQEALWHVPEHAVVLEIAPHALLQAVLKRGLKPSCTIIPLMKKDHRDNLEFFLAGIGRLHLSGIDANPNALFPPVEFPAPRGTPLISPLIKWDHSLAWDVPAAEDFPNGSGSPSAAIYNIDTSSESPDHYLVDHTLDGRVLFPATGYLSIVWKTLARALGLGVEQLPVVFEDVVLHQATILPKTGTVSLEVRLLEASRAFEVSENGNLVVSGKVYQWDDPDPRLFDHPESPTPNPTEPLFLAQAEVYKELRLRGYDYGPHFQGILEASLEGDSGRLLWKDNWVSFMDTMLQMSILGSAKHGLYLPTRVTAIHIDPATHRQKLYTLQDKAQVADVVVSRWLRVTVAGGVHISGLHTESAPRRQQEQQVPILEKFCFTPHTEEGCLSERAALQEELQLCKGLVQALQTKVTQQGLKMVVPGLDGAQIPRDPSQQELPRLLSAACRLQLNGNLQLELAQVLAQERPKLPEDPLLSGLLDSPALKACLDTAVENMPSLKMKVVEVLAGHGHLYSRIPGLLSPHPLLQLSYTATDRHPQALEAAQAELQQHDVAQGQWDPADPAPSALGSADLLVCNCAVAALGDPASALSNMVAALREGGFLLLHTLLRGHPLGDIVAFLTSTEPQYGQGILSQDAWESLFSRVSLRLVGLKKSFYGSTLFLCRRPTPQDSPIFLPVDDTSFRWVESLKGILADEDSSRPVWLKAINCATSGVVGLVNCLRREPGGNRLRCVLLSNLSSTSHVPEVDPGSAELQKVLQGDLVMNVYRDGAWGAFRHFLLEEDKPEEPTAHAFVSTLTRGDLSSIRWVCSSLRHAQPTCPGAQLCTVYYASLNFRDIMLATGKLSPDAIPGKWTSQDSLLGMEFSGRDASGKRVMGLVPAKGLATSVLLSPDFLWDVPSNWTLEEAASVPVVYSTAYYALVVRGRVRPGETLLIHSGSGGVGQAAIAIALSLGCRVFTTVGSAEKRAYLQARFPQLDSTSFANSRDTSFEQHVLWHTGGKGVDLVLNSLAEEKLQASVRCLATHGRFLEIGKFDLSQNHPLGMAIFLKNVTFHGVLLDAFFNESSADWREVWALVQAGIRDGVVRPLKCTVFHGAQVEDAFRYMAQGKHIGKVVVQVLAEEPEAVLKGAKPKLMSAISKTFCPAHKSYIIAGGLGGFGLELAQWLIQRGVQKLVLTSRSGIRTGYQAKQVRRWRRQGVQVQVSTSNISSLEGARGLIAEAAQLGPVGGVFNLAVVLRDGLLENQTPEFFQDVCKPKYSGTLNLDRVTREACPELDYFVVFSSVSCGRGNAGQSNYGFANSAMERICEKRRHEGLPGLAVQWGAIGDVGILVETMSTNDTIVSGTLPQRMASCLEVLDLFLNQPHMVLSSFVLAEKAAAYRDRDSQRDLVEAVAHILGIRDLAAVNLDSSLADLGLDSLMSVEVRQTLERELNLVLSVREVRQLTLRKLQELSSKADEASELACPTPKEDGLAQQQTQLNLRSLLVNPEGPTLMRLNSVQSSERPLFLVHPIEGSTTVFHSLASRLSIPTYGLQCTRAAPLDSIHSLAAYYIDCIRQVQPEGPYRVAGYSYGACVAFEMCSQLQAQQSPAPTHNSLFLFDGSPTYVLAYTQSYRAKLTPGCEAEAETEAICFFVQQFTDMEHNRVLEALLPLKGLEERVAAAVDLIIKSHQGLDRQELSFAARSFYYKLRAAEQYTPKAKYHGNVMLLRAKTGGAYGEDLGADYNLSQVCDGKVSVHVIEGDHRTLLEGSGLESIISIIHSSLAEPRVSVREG

pIC50	IC50	SMILES
6.54		O=S(=O)(c1ccc(-c2csc(-c3ccc(F)cc3)n2)cc1)N1CCOCC1
6.04		CCN(CC)S(=O)(=O)c1ccc(-c2csc(Cc3ccc(F)cc3)n2)cc1
5.28		CCN(CC)S(=O)(=O)c1ccc(-c2csc(C(c3ccccc3)c3ccccc3)n2)cc1
5.06		CCN(CC)S(=O)(=O)c1ccc(-c2csc(Cc3cccc(I)c3)n2)cc1
4.76		CCN(CC)S(=O)(=O)c1ccc(-c2csc(-c3ccc(Br)cc3C)n2)cc1
6.30		CCN(CC)S(=O)(=O)c1ccc(-c2csc(-c3ccc(F)cc3)n2)cc1
4.48		Cc1cc(C)c(S(=O)(=O)N2CCN(C(=O)Cc3ccc(S(=O)(=O)N4CCOCC4)s3)CC2)c(C)c1
5.93		CCN(CC)S(=O)(=O)c1ccc(-c2csc(Cc3cccc(F)c3)n2)cc1
	> 30 µM (inactive)	O=C(Cc1ccc(S(=O)(=O)N2CCOCC2)s1)N1CCN(S(=O)(=O)Cc2ccccc2)CC1
4.35		O=C(Cc1ccc(S(=O)(=O)N2CCOCC2)s1)N1CCN(S(=O)(=O)c2ccccc2)CC1
6.20		CCN(CC)S(=O)(=O)c1ccc(-c2csc(Cc3ccccc3F)n2)cc1
	> 30 µM (inactive)	CC(C)S(=O)(=O)N1CCN(C(=O)Cc2ccc(S(=O)(=O)N3CCOCC3)s2)CC1
	inactive	O=C(Cc1ccc(S(=O)(=O)N2CCOCC2)s1)N1CCN(S(=O)(=O)c2ccc(F)cc2)CC1
5.00		CCN(CC)S(=O)(=O)c1ccc(-c2csc(-c3ccc(Br)cc3)n2)cc1
	> 30 µM (inactive)	O=C(Cc1ccc(S(=O)(=O)N2CCOCC2)s1)NCc1ccccc1
5.59		CCN(CC)S(=O)(=O)c1ccc(-c2csc(C(C)(C)C)n2)cc1
5.00		CCN(CC)S(=O)(=O)c1ccc(-c2csc(-c3ccc(Cl)cc3)n2)cc1
5.24		CC(C)c1nc(-c2ccc(S(=O)(=O)N3CCOCC3)cc2)cs1
4.84		CC(C)(C)c1ccc(CNC(=O)Cc2ccc(S(=O)(=O)N3CCOCC3)s2)cc1
5.27		CCN(CC)S(=O)(=O)c1ccc(-c2csc(Cc3ccccc3OC)n2)cc1
	> 30 µM (inactive)	CS(=O)(=O)N1CCN(C(=O)Cc2ccc(S(=O)(=O)N3CCOCC3)s2)CC1
4.29		CCc1nc(-c2ccc(S(=O)(=O)N(CC)CC)cc2)cs1
5.49		CCN(CC)S(=O)(=O)c1ccc(-c2csc(Cc3cccc(C(F)(F)F)c3)n2)cc1
5.30		CCN(CC)S(=O)(=O)c1ccc(-c2csc(-c3cccc(Br)c3)n2)cc1
5.38		CCN(CC)S(=O)(=O)c1ccc(-c2csc(C(C)C)n2)cc1

From PubChem BioAssay AID1347040 (Sanford-Burnham Center for Chemical Genomics, 2019)
